Results published in US8338441B2, “Inhibitors of human immunodeficiency virus replication” (priority 2009, dated 2012).

The compounds below were run on HIV-1 NL4.3 strain (assay: C8166 HIV-1 Luciferase Assay (EC50)). Conditions: Human immunodeficiency virus 1, C8166, 72 h, read-out: Antiviral potency EC50.
Format: cell-based
Source text: C8166 HIV-1 Luciferase Assay (EC50)
C8166 cells are derived from a human T-lymphotrophic virus type 1 immortalized but nonexpressing line of cord blood lymphocytes (obtained from J. Sullivan and originally produced in the laboratory of R. Gallo, Virology 1983; 129: 51-64) and are highly permissive to HIV-1 infection. The pGL3 Basic LTR/TAR plasmid is made by introducing the HIV-1 HxB2 LTR sequence from nucleotide −138 to +80 (Sca1-HindIII) upstream of the luciferase gene in the pGL3 Basic Vector (a promoterless luciferase expression vector from Promega catalogue # E1751) with the gene for blasticidine resistance cloned in. The reporter cells are made by electroporating C8166 cells with pGL3 Basic LTR/TAR and selecting positive clones with blasticidine. Clone C8166-LTRIuc #A8-F5-G7 is selected by 3 consecutive rounds of limiting dilution under blasticidine selection. Cultures are maintained in complete media (consisting of: Roswell Park Memorial Institute medium (RPMI) 1640+10% FBS+10^−5 M β-mercaptoethanol+10 μg/ml gentamycin) with 5 μg/ml blasticidine, however, blasticidine selection is removed from the cells before performing the viral replication assay.
Luciferase Assay Protocol
Serial dilutions of HIV-1 inhibitor compounds are prepared in complete media from 10 mM DMSO stock solutions. Eleven serial dilutions of 2.5× are made at 8× desired final concentration in a 1 mL deep well titer plate (96 wells). The 12th well contains complete media with no inhibitor and serves as the positive control. All samples contain the same concentration of DMSO (≦0.1% DMSO). A 25 μL aliquot of inhibitor is added, to triplicate wells, of a 96 well tissue culture treated clear view black microtiter plate (Corning Costar catalogue # 3904). The total volume per well is 200 μL of media containing cells and inhibitor. The last row is reserved for uninfected C8166 LTRluc cells to serve as the background blank control and the first row is media alone.
C8166 LTRluc cells are counted and placed in a minimal volume of complete RPMI 1640 in a tissue culture flask (ex. 30×10^6 cells in 10 mL media/25 cm^2 flask). Cells are infected with HIV-1 or virus with variant integrase generated as described below at a […] (moi) of 0.005. Cells are incubated for 1.5 hours at 37° C. on a rotating rack in a 5% CO2 incubator and re-suspended in complete RPMI to give a final concentration of 25,000-cells/175 μL. 175 μL of cell mix is added to wells of a 96 well microtiter plate containing 25 μL 8× inhibitors. 25,000 uninfected C8166-LTRluc cells/well in 200 μL complete RPMI are added to the last row for background control. Cells are incubated at 37° C. in 5% CO2 incubator for 3 days.
50 μL Steady Glo (luciferase substrate T1/2=5 hours Promega catalogue # E2520) is added to each well of the 96 well plate. The relative light units (RLU) of luciferase is determined using the LUMIstar Galaxy luminometer (BMG LabTechnologies). Plates are read from the bottom for 2 seconds per well with a gain of 240.
The level of inhibition (% inhibition) of each well containing inhibitor is calculated as follows: […]
The calculated % inhibition values are used to determine EC50, slope factor (n) and maximum inhibition (Imax) by the non-linear regression routine NLIN procedure of SAS using the following equation: […]

In order of falling EC50:
1. Cc1nc(NC(=O)C(C)(C)C)c(C)c(-c2ccc3c(c2Cl)NCCO3)c1[C@H](OC(C)(C)C)C(=O)O [compound 1242]  0.22 µM
2. Cc1n[nH]c(C)c1-c1cccc(-c2nc(C)c([C@H](OC(C)(C)C)C(=O)O)c(-c3ccc4c(c3)CCCO4)c2C)c1 [compound 1018]  0.18 µM
3. Cc1nc(C(=O)Nc2ccc(C(N)=O)nc2)c(C)c(-c2ccc(Cl)cc2)c1[C@H](OC(C)(C)C)C(=O)O [compound 1283]  0.14 µM
4. Cc1nc(-c2cccc(-c3ccnn3C)c2)c(C)c(-c2ccc(Cl)cc2)c1[C@H](OC(C)(C)C)C(=O)O [compound 1124]  0.081 µM
5. Cc1nc(C(=O)Nc2nc3c(s2)CCC3)c(C)c(-c2ccc(Cl)cc2)c1[C@H](OC(C)(C)C)C(=O)O [compound 1276]  0.068 µM
6. CCCn1cc(-c2cccc(-c3nc(C)c([C@H](OC(C)(C)C)C(=O)O)c(-c4ccc5c(c4)CCCO5)c3C)c2)cn1 [compound 1011]  0.059 µM
7. Cc1nc(-c2cccc(-c3ccnnc3)c2)c(C)c(-c2ccc3c(c2)CCCO3)c1[C@H](OC(C)(C)C)C(=O)O [compound 1020]  0.049 µM
8. Cc1nc(C(=O)Nc2nnc(C3CC3)s2)c(C)c(-c2ccc(Cl)cc2)c1[C@H](OC(C)(C)C)C(=O)O [compound 1316]  0.047 µM
9. Cc1nc(C(=O)NC2Cc3ccccc3C2)c(C)c(-c2ccc(Cl)cc2)c1[C@H](OC(C)(C)C)C(=O)O [compound 1145]  0.035 µM
10. Cc1nc(NC(=O)C(C)(C)C)c(C)c(-c2ccc(Cl)cc2)c1[C@H](OC(C)(C)C)C(=O)O [compound 1202]  0.031 µM
11. Cc1nc(C(=O)NC(C)(C)c2ccccc2)c(C)c(-c2ccc(Cl)cc2)c1[C@H](OC(C)(C)C)C(=O)O [compound 1154]  0.027 µM
12. Cc1nc(C(=O)NC2CCC(C(C)(C)C)CC2)c(C)c(-c2ccc(Cl)cc2)c1[C@H](OC(C)(C)C)C(=O)O (some centres unmarked) [compound 1161]  0.027 µM
13. Cc1nc(-c2ccc3scnc3c2)c(C)c(-c2ccc(Cl)cc2)c1[C@H](OC(C)(C)C)C(=O)O [compound 1141]  0.026 µM
14. Cc1nc2ccc(NC(=O)c3nc(C)c([C@H](OC(C)(C)C)C(=O)O)c(-c4ccc(Cl)cc4)c3C)cc2s1 [compound 1311]  0.026 µM
15. Cc1nc(C(=O)NCC2CCCC2)c(C)c(-c2ccc3c(c2)NCCO3)c1[C@H](OC(C)(C)C)C(=O)O [compound 1293]  0.024 µM
16. Cc1nc(C(=O)Nc2ccc(C(F)(F)F)nc2)c(C)c(-c2ccc(Cl)cc2)c1[C@H](OC(C)(C)C)C(=O)O [compound 1280]  0.022 µM
17. Cc1nc(-c2cccc(-c3cncnc3)c2)c(C)c(-c2ccc3c(c2)CCCO3)c1[C@H](OC(C)(C)C)C(=O)O [compound 1017]  0.021 µM
18. Cc1nc(C(=O)NC(C)(C)C)c(C)c(-c2ccc(Cl)cc2)c1[C@H](OC(C)(C)C)C(=O)O [compound 1143]  0.021 µM
19. Cc1nc(-c2cccc(-c3cccnc3)c2)c(C)c(-c2ccc3c(c2)CCCO3)c1[C@H](OC(C)(C)C)C(=O)O [compound 1009]  0.02 µM
20. Cc1nc(-c2cccc(Br)c2)c(C)c(-c2ccc3c(c2)CCCO3)c1[C@H](OC(C)(C)C)C(=O)O [compound 1005]  0.019 µM
21. Cc1nc(-c2ccc(-c3cncnc3)cc2)c(C)c(-c2ccc3c(c2C)CCCO3)c1[C@H](OC(C)(C)C)C(=O)O [compound 1102]  0.017 µM
22. Cc1nc(C(=O)NCCc2ccccc2)c(C)c(-c2ccc(Cl)cc2)c1[C@H](OC(C)(C)C)C(=O)O [compound 1146]  0.017 µM
23. Cc1nc(C(=O)NCC2CCC2)c(C)c(-c2ccc(Cl)cc2)c1[C@H](OC(C)(C)C)C(=O)O [compound 1307]  0.017 µM
24. CC[C@@H](C)NC(=O)c1nc(C)c([C@H](OC(C)(C)C)C(=O)O)c(-c2ccc(Cl)cc2)c1C [compound 1160]  0.016 µM
25. Cc1nc(C(=O)NCc2ccnc3ccccc23)c(C)c(-c2ccc(Cl)cc2)c1[C@H](OC(C)(C)C)C(=O)O [compound 1442]  0.016 µM
26. Cc1ccc(-c2nc(C)c([C@H](OC(C)(C)C)C(=O)O)c(-c3ccc(Cl)cc3)c2C)cc1C [compound 1111]  0.015 µM
27. Cc1nc(C(=O)N[C@@H](C)C2CCCCC2)c(C)c(-c2ccc(Cl)cc2)c1[C@H](OC(C)(C)C)C(=O)O [compound 1152]  0.015 µM
28. Cc1ccc(-c2nc(C)c([C@H](OC(C)(C)C)C(=O)O)c(-c3ccc4c5c(ccnc35)CCO4)c2C)cc1C [compound 1116]  0.013 µM
29. Cc1nc(C(=O)Nc2ccc(F)cn2)c(C)c(-c2ccc3c(c2)NCCO3)c1[C@H](OC(C)(C)C)C(=O)O [compound 1290]  0.011 µM
30. Cc1nc(-c2ccc(OC(F)(F)F)cc2)c(C)c(-c2ccc(Cl)cc2)c1[C@H](OC(C)(C)C)C(=O)O [compound 1132]  0.0094 µM
31. Cc1ccc(NC(=O)c2nc(C)c([C@H](OC(C)(C)C)C(=O)O)c(-c3ccc(Cl)cc3)c2C)cc1 [compound 1167]  0.0093 µM
32. Cc1nc(C(=O)NC2CCC3(CC2)CC3)c(C)c(-c2ccc(Cl)cc2)c1[C@H](OC(C)(C)C)C(=O)O [compound 1444]  0.0092 µM
33. Cc1nc(C(=O)NCC2CCCC2)c(C)c(-c2ccc(Cl)cc2)c1[C@H](OC(C)(C)C)C(=O)O [compound 1208]  0.0089 µM
34. Cc1nc(C(=O)NC2CCCCCC2)c(C)c(-c2ccc3c(c2C)NCCO3)c1[C@H](OC(C)(C)C)C(=O)O [compound 1192]  0.0083 µM
35. Cc1nc(C(=O)NCC2CCCC2)c(C)c(-c2ccc3c(c2Cl)NCCO3)c1[C@H](OC(C)(C)C)C(=O)O [compound 1256]  0.0081 µM
36. Cc1nc(C(=O)N[C@H]2CC[C@H](C)CC2)c(C)c(-c2ccc(Cl)cc2)c1[C@H](OC(C)(C)C)C(=O)O [compound 1142]  0.0079 µM
37. Cc1ccc(-c2nc(C)c([C@H](OC(C)(C)C)C(=O)O)c(-c3ccc4c(c3C)NCCO4)c2C)cc1C [compound 1113]  0.0077 µM
38. [2H]C1([2H])C([2H])([2H])C([2H])([2H])C([2H])(NC(=O)c2nc(C)c([C@H](OC(C)(C)C)C(=O)O)c(-c3ccc(Cl)cc3)c2C)C([2H])([2H])C1([2H])[2H] [compound 1443]  0.0071 µM
39. Cc1nc(C(=O)NC2CCCCCC2)c(C)c(-c2ccc(Cl)cc2)c1[C@H](OC(C)(C)C)C(=O)O [compound 1147]  0.0069 µM
40. COc1cc2nc(-c3nc(C)c([C@H](OC(C)(C)C)C(=O)O)c(-c4ccc(Cl)cc4)c3C)n(C)c2cc1Cl [compound 1441]  0.0049 µM
41. Cc1nc(C(=O)N[C@H]2CC[C@H](C)CC2)c(C)c(-c2ccc3c(c2)CCCO3)c1[C@H](OC(C)(C)C)C(=O)O [compound 1127]  0.0045 µM
42. Cc1nc(C(=O)Nc2ccc3ncccc3c2)c(C)c(-c2ccc(Cl)cc2)c1[C@H](OC(C)(C)C)C(=O)O [compound 1275]  0.0045 µM
43. COc1ccc2nc(-c3nc(C)c([C@H](OC(C)(C)C)C(=O)O)c(-c4ccc(Cl)cc4)c3C)n(C)c2c1 [compound 1439]  0.004 µM
44. CCn1c(-c2nc(C)c([C@H](OC(C)(C)C)C(=O)O)c(-c3ccc(Cl)cc3)c2C)nc2ccccc21 [compound 1440]  0.0024 µM
45. Cc1nc(-c2nc3cc(Cl)ccc3[nH]2)c(C)c(-c2ccc(Cl)cc2F)c1[C@H](OC(C)(C)C)C(=O)O [compound 1445]  0.0019 µM
46. Cc1nc(-c2cn3cc(Cl)ccc3n2)c(C)c(-c2ccc(Cl)cc2)c1[C@H](OC(C)(C)C)C(=O)O [compound 1438]  0.00094 µM
47. Cc1nc(-c2nc3ccc(Cl)cc3n2C)c(C)c(-c2ccc(Cl)cc2)c1[C@H](OC(C)(C)C)C(=O)O [compound 1437]  0.00075 µM
